Earlier results as cited in US20110206693A1, “LYSINE RIBOSWITCH AND COMPOSITIONS AND USES THEREOF” (priority 2008, published 2011).

System: lysine riboswitch
Details: binding to the riboswitch RNA, relative to lysine; Sudarsan 2003 and Blount 2007

Compound	lower affinity than lysine for the RNA [fold]
NCCSC[C@H](N)C(=O)O [AEC, S-(2-aminoethyl)-L-cysteine]	30
NCCS(=O)(=O)C[C@H](N)C(=O)O [AESA, L-3-[(2-aminoethyl)-sulfonyl]-alanine]	7

Same assay, conditions: qualitative, compared with lysine

Compound	binding / recognition by the lysine riboswitch (in words)
NCCC[C@H](N)C(=O)O [L-ornithine]	not efficiently bound
NCCCCC[C@H](N)C(=O)O [L-α-homolysine]	not efficiently bound
C[N+](C)(C)CCCC[C@H](N)C(=O)[O-] [N^6-trimethyl-L-lysine]	precludes efficient recognition
N=C(N)NCCCC[C@H](N)C(=O)O [homoarginine]	precludes efficient recognition
